According to ChEMBL document CHEMBL1201862, “PubChem BioAssay data set” (2004):
Activity calls are given as the source filed them.

How the values were obtained:
[1] = biological target: Kallikrein-7 (Homo sapiens, UniProt P49862); test: Fluorescence Intensity-based biochemical primary high throughput dose response assay to identify activators of kallikrein-7 (K7) zymogen.
[2] = HEK293T cytotoxicity, dose response, cytotoxicity control for miR-122 modulator project, cell-based, inhibitor set, cherry-pick, set 2 (AID 720697); assay type: functional
[3] = HEK293T cytotoxicity, dose response, cytotoxicity control for miR-122 modulator project, cell-based, activator set, cherry-pick (AID 720690); assay type: functional;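 note: HEK293T human cells scored for general mammalian cytotoxicity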
[4] = NIH/3T3 fibroblast cytotoxicity, dose response, cytotoxicity control, cell-based, plate reader, dry powder, set 2 (AID 652280); assay type: functional; conditions: NIH3T3
[5] = T. cruzi growth inhibition in host cells, dose response, cell-based, plate reader, dry powder, set 2 (AID 652275); assay type: functional
[6] = biological target: Endoplasmic reticulum aminopeptidase 1 (Homo sapiens, UniProt Q9NZ08); test: ERAP1 aminopeptidase inhibitors, dose response, biochemical, cherry-pick, set 2, plate reader (AID 743314)
[7] = biological target: Large T antigen (Simian virus 40, UniProt P03070); assay type: functional, Betapolyomavirus macacae;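 note: Confirmatory-stage PubChem screen for compounds that inhibit SV40 T antigen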
Large T antigen, sequence (P03070 whole entry): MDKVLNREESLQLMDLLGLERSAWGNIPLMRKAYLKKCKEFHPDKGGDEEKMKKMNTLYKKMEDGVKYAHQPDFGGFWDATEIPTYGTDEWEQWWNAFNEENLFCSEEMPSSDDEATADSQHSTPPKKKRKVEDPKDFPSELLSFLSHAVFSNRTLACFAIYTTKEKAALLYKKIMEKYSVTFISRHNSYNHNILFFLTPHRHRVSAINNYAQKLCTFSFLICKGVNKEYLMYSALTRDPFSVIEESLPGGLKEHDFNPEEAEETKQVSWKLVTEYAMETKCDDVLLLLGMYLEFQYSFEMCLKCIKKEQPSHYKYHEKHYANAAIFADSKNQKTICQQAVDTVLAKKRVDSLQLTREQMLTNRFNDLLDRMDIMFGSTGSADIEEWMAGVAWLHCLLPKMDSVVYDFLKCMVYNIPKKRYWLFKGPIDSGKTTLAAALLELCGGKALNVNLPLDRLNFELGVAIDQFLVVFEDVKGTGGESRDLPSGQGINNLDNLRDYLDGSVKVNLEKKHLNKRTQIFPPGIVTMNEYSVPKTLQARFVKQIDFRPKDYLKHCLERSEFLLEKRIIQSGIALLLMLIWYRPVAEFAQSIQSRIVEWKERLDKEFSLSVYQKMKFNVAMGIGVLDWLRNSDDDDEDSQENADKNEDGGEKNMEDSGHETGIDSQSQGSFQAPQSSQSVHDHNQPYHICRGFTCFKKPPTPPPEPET

[8] = biological target: FAD-linked sulfhydryl oxidase ALR (Homo sapiens, UniProt P55789); test: inhibitors of human ALR sulfhydryl oxidase, dose response, biochemical, H2O2 detection, luminescence, cherry-pick (AID 493248)
FAD-linked sulfhydryl oxidase ALR, sequence (P55789 whole entry): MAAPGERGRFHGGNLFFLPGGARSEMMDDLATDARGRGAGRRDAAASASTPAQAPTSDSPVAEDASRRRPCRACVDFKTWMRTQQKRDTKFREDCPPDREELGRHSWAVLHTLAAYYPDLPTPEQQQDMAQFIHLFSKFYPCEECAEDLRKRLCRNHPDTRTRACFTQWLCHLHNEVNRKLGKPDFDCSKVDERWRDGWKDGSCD

[9] = biological target: T1, DNA repair protein RAD52 homolog (Homo sapiens, UniProt P43351); assay type: functional, biochemical
T1 sequence (P43351 whole entry): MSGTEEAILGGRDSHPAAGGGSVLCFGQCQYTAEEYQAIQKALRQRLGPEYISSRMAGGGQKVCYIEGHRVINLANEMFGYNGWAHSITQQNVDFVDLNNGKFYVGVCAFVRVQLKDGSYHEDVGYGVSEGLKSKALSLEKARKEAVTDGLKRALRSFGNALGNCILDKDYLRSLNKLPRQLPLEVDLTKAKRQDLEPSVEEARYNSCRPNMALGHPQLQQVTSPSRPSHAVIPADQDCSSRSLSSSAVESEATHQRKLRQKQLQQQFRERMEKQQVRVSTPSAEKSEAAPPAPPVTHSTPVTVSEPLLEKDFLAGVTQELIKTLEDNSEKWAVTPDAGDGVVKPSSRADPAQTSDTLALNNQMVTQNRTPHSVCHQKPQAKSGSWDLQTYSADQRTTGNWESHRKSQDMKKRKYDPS

[10] = biological target: Histone-lysine N-methyltransferase NSD2 (Homo sapiens, UniProt O96028); assay type: biochemical
Histone-lysine N-methyltransferase NSD2, sequence (O96028 whole entry): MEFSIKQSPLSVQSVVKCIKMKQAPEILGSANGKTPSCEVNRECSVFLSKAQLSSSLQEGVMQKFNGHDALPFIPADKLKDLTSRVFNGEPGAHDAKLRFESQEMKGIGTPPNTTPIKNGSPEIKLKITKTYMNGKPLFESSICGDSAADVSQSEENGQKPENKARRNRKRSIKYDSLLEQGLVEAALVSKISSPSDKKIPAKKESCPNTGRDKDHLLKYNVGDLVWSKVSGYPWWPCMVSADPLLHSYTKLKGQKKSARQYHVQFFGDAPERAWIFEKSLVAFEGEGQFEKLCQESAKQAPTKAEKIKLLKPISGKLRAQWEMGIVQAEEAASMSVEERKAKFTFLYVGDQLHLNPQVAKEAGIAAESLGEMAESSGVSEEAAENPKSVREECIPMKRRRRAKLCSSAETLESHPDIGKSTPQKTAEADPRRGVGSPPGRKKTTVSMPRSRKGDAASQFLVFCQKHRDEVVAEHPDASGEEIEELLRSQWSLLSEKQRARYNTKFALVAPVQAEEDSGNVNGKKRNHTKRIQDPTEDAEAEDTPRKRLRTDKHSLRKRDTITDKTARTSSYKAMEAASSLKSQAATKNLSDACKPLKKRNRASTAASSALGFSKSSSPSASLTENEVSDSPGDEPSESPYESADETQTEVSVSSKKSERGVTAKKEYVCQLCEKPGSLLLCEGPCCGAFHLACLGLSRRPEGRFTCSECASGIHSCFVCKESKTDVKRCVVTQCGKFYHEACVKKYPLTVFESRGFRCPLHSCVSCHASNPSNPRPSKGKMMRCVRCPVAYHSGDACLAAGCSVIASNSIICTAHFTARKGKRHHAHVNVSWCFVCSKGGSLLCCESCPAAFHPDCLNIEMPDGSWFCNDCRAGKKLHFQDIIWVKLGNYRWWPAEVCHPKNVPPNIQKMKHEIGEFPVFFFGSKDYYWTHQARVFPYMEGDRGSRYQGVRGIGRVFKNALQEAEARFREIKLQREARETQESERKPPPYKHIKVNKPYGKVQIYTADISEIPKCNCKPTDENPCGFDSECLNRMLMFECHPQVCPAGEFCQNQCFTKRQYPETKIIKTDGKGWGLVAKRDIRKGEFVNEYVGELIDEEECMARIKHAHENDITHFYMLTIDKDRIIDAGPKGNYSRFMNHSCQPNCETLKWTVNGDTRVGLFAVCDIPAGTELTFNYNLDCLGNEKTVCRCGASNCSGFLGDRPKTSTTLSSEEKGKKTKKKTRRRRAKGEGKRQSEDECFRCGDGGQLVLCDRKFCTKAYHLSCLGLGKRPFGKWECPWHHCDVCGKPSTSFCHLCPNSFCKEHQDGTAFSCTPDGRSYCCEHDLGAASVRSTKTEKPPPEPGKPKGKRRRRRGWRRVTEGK

[11] = biological target: Bifunctional protein GlmU (Mycobacterium tuberculosis, UniProt P9WMN3); test: Inhibitors of Mycobacterial Glucosamine-1-phosphate acetyl transferase (GlmU). Secondary screen.; design: species or system Mycobacterium tuberculosis H37Rv
[12] = biological target: Induced myeloid leukemia cell differentiation protein Mcl-1 (Homo sapiens, UniProt Q07820); assay type: functional
[13] = biological target: Eukaryotic translation initiation factor 4E (Mus musculus, UniProt P63073); test: eIF4E–eIF4G protein interaction inhibitors, dose response, biochemical, TR-FRET (AID 855); assay type: functional;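 note: potency for disrupting eIF4E binding to eIF4GI seen as loss of FRET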
[14] = biological target: T2, Microphthalmia-associated transcription factor (Homo sapiens, UniProt O75030); test: TRPM1 promoter luciferase signal decrease, dose response, MITF inhibitor project, cell-based, SK-MEL-5, cherry-picked, set 3 (AID 493073); assay type: functional
T2 sequence (O75030 whole entry): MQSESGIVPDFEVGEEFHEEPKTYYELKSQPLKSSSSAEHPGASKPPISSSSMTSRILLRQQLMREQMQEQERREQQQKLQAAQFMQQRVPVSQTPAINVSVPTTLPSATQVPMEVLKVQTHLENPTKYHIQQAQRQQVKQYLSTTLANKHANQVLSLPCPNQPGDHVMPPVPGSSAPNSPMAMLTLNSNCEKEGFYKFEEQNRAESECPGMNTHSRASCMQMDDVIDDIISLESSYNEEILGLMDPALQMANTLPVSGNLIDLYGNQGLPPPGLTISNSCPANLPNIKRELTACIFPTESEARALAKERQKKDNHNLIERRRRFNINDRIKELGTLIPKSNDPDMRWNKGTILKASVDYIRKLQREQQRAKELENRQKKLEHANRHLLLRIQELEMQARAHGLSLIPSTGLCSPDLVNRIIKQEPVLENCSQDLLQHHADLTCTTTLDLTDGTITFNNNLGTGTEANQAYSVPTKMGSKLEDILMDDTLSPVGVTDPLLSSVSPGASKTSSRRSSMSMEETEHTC

[15] = A549 cell cytotoxicity, dose response, cytotoxicity control, plate reader, cherry-pick, antagonist series (AID 743412); assay type: functional, cell-based
[16] = HepG2 cell cytotoxicity, dose response, cytotoxicity control, plate reader, cherry-pick, antagonist series (AID 743416); assay type: functional, cell-based
[17] = HEK293 cell cytotoxicity, dose response, cytotoxicity control, plate reader, cherry-picked samples (AID 743446); assay type: functional, cell-based
[18] = biological target: RNA-editing ligase 1, mitochondrial (Trypanosoma brucei brucei, UniProt P86926); test: TbREL1 ligase inhibitors, dose response, biochemical, fluorescence, Trypanosoma brucei (AID 1117295); assay type: functional
RNA-editing ligase 1, mitochondrial, sequence (P86926 whole entry): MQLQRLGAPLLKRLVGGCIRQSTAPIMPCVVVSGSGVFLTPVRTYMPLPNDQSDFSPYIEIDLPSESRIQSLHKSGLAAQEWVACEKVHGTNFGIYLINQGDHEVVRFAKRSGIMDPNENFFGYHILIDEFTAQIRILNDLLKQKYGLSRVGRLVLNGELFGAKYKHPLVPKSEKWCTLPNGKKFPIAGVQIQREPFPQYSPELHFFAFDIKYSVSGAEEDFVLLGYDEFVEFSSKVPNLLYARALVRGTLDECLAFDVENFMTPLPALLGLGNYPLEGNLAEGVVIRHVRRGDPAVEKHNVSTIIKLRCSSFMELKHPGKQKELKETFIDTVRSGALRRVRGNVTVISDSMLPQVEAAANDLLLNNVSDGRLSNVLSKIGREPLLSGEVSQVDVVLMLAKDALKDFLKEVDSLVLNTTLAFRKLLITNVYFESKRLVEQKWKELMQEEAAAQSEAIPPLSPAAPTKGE

[19] = biological target: Peroxisome proliferator-activated receptor gamma/Nuclear receptor coactivator 1 (Homo sapiens, UniProt P37231); test: TR-FRET dose response biochemical High Throughput Screening assay for agonists of the steroid receptor coactivator 1 (SRC-1) recruitment by the peroxisome proliferator-activated receptor gamma (PPAR gamma): non-selective agonists. [Related pubchem assays (depositor defined):AID1300, AID1808, AID504735, AID631]; assay type: protein assay
[20] = biological target: Peroxisome proliferator-activated receptor gamma/Nuclear receptor coactivator 3 (Homo sapiens, UniProt P37231); test: TR-FRET dose response biochemical High Throughput Screening assay for agonists of the steroid receptor coactivator 3 (SRC-3) recruitment by the peroxisome proliferator-activated receptor gamma (PPAR gamma): non-selective agonists. [Related pubchem assays: 1301 (Confirmation screen.), 1048 (Primary screen.)]; assay type: functional
[21] = biological target: Peroxisome proliferator-activated receptor gamma/Nuclear receptor coactivator 2 (Homo sapiens, UniProt P37231); test: TR-FRET dose response biochemical High Throughput Screening assay for agonists of the steroid receptor coactivator 2 (SRC-2) recruitment by the peroxisome proliferator-activated receptor gamma (PPAR gamma): non-selective agonists. [Related pubchem assays: 1297, 1032 ]; assay type: functional
[22] = LGR2 antagonists, dose response, cell-based, HEK293, CRE-luciferase reporter, cherry pick, set 2 (AID 743343); assay type: functional;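 note: transfected cells were stimulated with diluted bursicon conditioned medium after compound addition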
[23] = MC4R antagonists, dose response, counter-screen for LGR2 antagonist project, cell-based, plate reader, cherry pick (AID 743444); assay type: functional;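 note: transfected HEK 293 cells stimulated with alpha-MSH peptide; potency of inhibitors of the alpha-MSH evoked signal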
[24] = biological target: T3, RNA-binding protein pos-1 (Caenorhabditis elegans, UniProt G5EF15); test: inhibitors of POS-1/mex-3 RNA binding, dose response, biochemical, fluorescence polarization (AID 1964);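 note: purified POS-1 fused to maltose binding protein made in E. coli; potency of compounds blocking POS-1 binding to fluorescent RNA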
T3 sequence (G5EF15 whole entry): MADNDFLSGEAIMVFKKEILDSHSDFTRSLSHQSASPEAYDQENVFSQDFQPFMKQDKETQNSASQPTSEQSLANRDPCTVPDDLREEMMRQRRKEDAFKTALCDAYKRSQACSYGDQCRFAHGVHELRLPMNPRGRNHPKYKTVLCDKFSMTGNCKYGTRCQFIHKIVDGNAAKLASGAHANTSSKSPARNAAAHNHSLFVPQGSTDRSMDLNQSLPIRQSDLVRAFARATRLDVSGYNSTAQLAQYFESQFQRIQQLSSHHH

[25] = biological target: T4, Zinc finger protein mex-5 (Caenorhabditis elegans, UniProt Q9XUB2); test: MEX-5/TCR-2 RNA interaction inhibitors, dose response, biochemical, C. elegans, fluorescence polarization (AID 1960)
T4 sequence (Q9XUB2 whole entry): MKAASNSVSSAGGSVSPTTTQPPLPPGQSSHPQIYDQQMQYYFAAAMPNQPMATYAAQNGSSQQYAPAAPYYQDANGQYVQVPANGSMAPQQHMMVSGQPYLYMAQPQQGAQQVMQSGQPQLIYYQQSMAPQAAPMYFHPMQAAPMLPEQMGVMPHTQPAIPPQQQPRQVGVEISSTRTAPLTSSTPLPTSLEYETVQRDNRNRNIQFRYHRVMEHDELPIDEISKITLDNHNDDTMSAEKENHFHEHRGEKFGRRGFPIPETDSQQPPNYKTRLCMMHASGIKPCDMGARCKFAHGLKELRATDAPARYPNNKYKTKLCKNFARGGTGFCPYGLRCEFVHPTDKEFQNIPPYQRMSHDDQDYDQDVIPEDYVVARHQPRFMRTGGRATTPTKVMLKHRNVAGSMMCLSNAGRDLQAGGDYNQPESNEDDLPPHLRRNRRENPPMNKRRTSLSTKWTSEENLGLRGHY

[26] = biological target: Genome polyprotein (dengue virus type 2, UniProt P29990); test: Dengue-2 NS5 methyltransferase inhibitors, primary screen, biochemical, confirmation dose response (AID 588689); assay type: functional
Genome polyprotein, sequence (P29990 2492-3391 limits assumed): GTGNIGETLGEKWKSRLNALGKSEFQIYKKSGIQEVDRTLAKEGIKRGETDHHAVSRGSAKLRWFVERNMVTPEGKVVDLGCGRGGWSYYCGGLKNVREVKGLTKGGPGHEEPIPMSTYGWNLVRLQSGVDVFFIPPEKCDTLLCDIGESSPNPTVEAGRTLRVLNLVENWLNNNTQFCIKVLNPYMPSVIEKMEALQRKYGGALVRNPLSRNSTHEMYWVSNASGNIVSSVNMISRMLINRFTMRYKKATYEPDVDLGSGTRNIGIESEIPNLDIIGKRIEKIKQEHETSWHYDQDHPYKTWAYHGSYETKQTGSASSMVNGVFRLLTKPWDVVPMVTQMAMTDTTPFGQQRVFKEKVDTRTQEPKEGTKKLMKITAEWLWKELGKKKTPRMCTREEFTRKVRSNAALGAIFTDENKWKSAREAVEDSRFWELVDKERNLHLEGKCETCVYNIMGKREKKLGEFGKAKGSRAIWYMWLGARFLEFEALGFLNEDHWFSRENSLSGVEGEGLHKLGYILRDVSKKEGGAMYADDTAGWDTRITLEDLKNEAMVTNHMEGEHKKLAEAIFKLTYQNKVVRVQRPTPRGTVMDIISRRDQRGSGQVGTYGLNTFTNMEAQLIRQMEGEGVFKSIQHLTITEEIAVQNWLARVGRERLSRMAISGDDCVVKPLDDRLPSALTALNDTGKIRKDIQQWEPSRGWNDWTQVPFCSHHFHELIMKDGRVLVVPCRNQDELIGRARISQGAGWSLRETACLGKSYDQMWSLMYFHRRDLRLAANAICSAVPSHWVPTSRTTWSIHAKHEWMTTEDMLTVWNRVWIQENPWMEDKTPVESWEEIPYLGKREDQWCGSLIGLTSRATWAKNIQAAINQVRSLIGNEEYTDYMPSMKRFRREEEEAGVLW

[27] = biological target: Ras and Rab interactor 1/Tyrosine-protein kinase ABL1 (Homo sapiens, UniProt P00519+Q13671); assay type: functional;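 note: biochemical TR-FRET dose-response test measuring inhibition of binding between Rin1 and Abl proteins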
[28] = biological target: Caspase-6 (Homo sapiens, UniProt P55212); test: human caspase-6 inhibitors, dose response, biochemical, VEID-R110 fluorescence, cherry-pick (AID 720632)
Caspase-6, sequence (P55212 24-179 limits assumed): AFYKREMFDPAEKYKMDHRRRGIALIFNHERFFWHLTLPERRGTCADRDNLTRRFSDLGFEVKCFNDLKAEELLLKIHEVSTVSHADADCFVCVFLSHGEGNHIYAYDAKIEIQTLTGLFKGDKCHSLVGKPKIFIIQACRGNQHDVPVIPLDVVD
Caspase-6, sequence (P55212 194-293 limits assumed): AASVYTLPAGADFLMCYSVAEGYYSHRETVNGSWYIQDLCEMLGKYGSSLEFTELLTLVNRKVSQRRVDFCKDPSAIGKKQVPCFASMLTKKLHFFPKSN

[29] = YAP1 pathway inhibition via CTGF transcript levels, dose response, cell-based, DLD1 colon cancer, RT-qPCR, cherry-pick (AID 1053122); assay type: functional; conditions: Cancer cell lines
[30] = biological target: Mitogen-activated protein kinase 10 (Homo sapiens, UniProt P53779); test: Dose response biochemical screening assay for inhibitors of c-Jun N-Terminal Kinase 3 (JNK3). [Related pubchem assays: 746 ]
Mitogen-activated protein kinase 10, sequence (P53779 whole entry): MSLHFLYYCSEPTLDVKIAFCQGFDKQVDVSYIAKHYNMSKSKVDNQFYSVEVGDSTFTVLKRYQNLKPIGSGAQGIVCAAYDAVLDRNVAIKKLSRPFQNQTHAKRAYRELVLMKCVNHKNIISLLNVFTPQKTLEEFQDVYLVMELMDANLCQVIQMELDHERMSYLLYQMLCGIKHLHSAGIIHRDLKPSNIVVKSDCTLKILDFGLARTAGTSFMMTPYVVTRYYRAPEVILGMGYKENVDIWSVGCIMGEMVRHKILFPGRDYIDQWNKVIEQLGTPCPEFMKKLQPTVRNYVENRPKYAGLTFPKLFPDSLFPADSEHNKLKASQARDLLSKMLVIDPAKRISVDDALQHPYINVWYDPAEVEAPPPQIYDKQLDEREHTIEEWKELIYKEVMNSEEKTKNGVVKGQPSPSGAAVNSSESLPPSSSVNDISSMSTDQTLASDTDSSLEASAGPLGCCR

[31] = biological target: Cytochrome P450 2C9 (Homo sapiens, UniProt P11712)
[32] = biological target: G-protein coupled receptor 183 (Homo sapiens, UniProt P32249); test: SAR confirmation of small molecule antagonists of the EBI2 receptor via a luminescent beta-arrestin assa.; assay type: functional
G-protein coupled receptor 183, sequence (P32249 whole entry): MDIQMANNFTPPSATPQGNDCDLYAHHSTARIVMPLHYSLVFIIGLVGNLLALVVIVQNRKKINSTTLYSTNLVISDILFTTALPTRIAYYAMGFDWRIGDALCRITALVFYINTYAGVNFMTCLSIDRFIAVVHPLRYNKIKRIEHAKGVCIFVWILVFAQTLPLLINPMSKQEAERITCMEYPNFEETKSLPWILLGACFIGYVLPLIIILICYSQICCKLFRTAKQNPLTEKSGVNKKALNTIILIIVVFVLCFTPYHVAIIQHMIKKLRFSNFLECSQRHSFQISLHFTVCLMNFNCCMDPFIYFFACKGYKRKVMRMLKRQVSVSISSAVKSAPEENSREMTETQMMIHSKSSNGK

Kallikrein-7, sequence (P49862 whole entry): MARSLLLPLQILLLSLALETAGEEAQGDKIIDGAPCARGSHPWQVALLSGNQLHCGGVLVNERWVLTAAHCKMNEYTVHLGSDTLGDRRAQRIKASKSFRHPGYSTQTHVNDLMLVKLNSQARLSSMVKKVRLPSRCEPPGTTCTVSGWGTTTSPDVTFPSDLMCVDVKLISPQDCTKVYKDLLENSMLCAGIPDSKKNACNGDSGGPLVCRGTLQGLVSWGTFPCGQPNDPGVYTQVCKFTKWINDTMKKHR

O=C(O)CCC(=O)NN1C(=O)c2ccccc2NC1c1ccco1 (configuration not stated)
EC50 [1]: > 69.5 µM (inactive)

C[C@@H]1CN([C@@H](C)CO)C(=O)Cc2cc(NS(=O)(=O)c3ccc(Cl)cc3)ccc2O[C@H]1CN(C)Cc1ccc(C(F)(F)F)cc1
AC50 [2]: < 0.195 µM (active)
AC50 [3]: 33.8 µM (active)

OC[C@H]1[C@H](c2ccc(-c3cccc(F)c3)cc2)[C@@H]2CN(CCC(F)(F)F)CCCCN12
AC50 [4]: 3.34 µM (active)
AC50 [5]: 0.53 µM (active)

O=C(NCc1ccccn1)[C@@H]1[C@@H](CO)[C@@H]2Cn3c(ccc(/C=C/c4ccccc4)c3=O)[C@H]1N2CC1CC1
AC50 [6]: 7.58 µM (active)

CCN1CCN(c2ccc(N)cc2C)CC1
IC50 [7]: 6.6 µM (active)
AC50 [8]: 1.73 µM (active)
AC50 [9]: 0.278 µM (active)
AC50 [10]: > 20 µM (inactive)

O=C1C(=Cc2ccc(Br)o2)C(=O)c2ccccc21
IC50 [7]: 93.7 µM (active)
IC50 [11]: 18.5 µM (active)
IC50 [12]: 1.92 µM (active)
IC50 [13]: 20.1 µM (active)

Cc1ccccc1NC(=O)COC(=O)COc1ccc2ccc(=O)oc2c1
EC50 [1]: 31.9 µM (inactive)

O=C(Cn1ncc(Cl)c(Cl)c1=O)N1CCOCC1
AC50 [14]: 9.82 µM (active)
AC50 [15]: 38 µM (active)
AC50 [16]: 34.4 µM (active)
AC50 [17]: 13.7 µM (active)

CC(C)C[C@H](NC1(C(=O)NC2CCCCC2)CCN(C)CC1)C(=O)NCC(c1ccccc1)c1ccccc1
IC50 [18]: > 96.6 µM (inactive)

COc1cccc(C#Cc2ccc([C@@H]3[C@@H](CO)N(C(=O)C4CCC4)[C@H]3C#N)cc2)c1
AC50 [15]: 30.9 µM (active)
AC50 [16]: 26.8 µM (active)
AC50 [17]: 46.8 µM (active)

Cc1ccccc1C(=O)Nc1nnc(-c2ccco2)s1
EC50 [19]: > 79.4 µM (inactive)
EC50 [20]: > 79.4 µM (not active)
EC50 [21]: > 26.5 µM (not active)
AC50 [22]: 4.84 µM (active)
AC50 [23]: 8.18 µM (active)

Oc1ccc(/C=N/N2CCCCC2)c(O)c1O
EC50 [24]: 20.3 µM (active)
EC50 [25]: > 300 µM (inconclusive)
IC50 [26]: > 100 µM (active)
IC50 [27]: > 73.5 µM (inactive)
AC50 [28]: 24.2 µM (active)

C[C@@H]1CN([C@H](C)CO)C(=O)c2ccccc2-c2ccccc2CO[C@@H]1CN(C)Cc1cccc2c1OCCCO2
AC50 [29]: 12.3 µM (active)

Cc1nnc(N/N=C/c2cccc(C(F)(F)F)c2)n1N
AC50 [28]: 34.8 µM (active)

Nc1nc(-c2ccccc2)cc(-c2ccccc2O)n1
IC50 [30]: 40.6 µM (not active)
AC50 [31]: 3.55 µM (inconclusive)

N#Cc1ccc(C(=O)N2CCN(C(=O)/C=C/c3ccc(Br)cc3)CC2)cc1
IC50 [32]: 0.00174 µM (active)

COC(=O)C1=C(C)N(Cc2ccccc2C(F)(F)F)C(NCc2ccc3c(c2)OCO3)=NC1c1ccccc1 (configuration not stated)
IC50 [18]: > 96.6 µM (inactive)

COc1ccc2oc(-c3ccccc3)cc(=O)c2c1 [6-METHOXYFLAVONE]
AC50 [15]: > 52 µM (inactive)
AC50 [16]: > 52 µM (inactive)
AC50 [22]: 5.46 µM (active)
AC50 [23]: 6.5 µM (active)

CCN1CCN(c2ccc(N)cc2)CC1
AC50 [8]: 4.5 µM (active)
AC50 [9]: 1.47 µM (active)
AC50 [10]: > 20 µM (inactive)

O=C(/C=C/c1ccc(F)cc1)N1CCN(S(=O)(=O)c2cccc(Br)c2)CC1
IC50 [32]: 0.0175 µM (active)
